# Experimental data reported in US10526278B2, “Inhibitors of quorum sensing receptor LasR” (priority 2017, dated 2020).
# What was measured:
# P. aeruginosa PAO1 [1] = settings: earlier reports; cited from earlier work
# P. aeruginosa PAO1 [2] = assay: Elastase B production in P. aeruginosa PAO1 culture supernatants (elastin-Congo red); format: cell-based, Pseudomonas aeruginosa; settings: compound alone 100 μM; % elastase relative to DMSO; FIG. 12A
# Description: FIG. 12A is a graph comparing inhibition of elastase (as % relative to DMSO) for certain compounds of the invention. The amount of indicated compound added was 100 μM. M64 alone or in combination was added in the amount of 20 μM. The assay is conducted as described in Welsh et al. (2016) for compounds shown as well as certain compounds in combination with compound M-64 (Starkey, M. et al. (2014)):
# The amount of elastase B in P. aeruginosa culture supernatants was measured following a reported protocol (Welsh et al., 2017 and Geske et al., 2007b) with modifications. A 10 mL overnight culture of P. aeruginosa PAO1 was grown for 16 hr. An inoculating culture was prepared by diluting the overnight culture 1:100 into freshly prepared assay medium, and 2 mL aliquots of this subculture were added to each test tube (0.5% DMSO, final). The cultures were grown for 17 hr, and the final cell density measured by reading OD600. […]
# To quantify elastase B activity, the undigested elastin was pelleted by centrifugation of the assay plate at […] for 10 min, after which […] of the supernatant was transferred to a new, clear 96-well plate, and the absorbance at 490 nm measured. Media background absorbance (measured from a “no bacteria” control) was subtracted, the resulting values growth normalized by dividing by the final OD600, and the data plotted relative to a DMSO-treated positive control.
# LasR [3] = target: T1, LasR (Pseudomonas aeruginosa, UniProt P25084); assay: LasR activation (agonism) assay, methods of Moore et al. 2015; format: cell-based; settings: at high concentrations; FIGS. 8B, 9B, 10B
# T1 sequence (P25084 whole entry): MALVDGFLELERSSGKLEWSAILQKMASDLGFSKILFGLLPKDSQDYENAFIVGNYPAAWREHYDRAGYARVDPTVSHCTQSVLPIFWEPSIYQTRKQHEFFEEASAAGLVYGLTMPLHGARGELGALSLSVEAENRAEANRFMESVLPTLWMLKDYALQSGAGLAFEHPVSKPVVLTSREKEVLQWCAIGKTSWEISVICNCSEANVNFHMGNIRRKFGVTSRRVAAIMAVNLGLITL
# From the text: (§1) Methods for assessing LasR activation and inhibition are known in the art. More specifically methods as described in Moore et al. 2015 are used herein to assess activation and inhibition.
# FIGS. 8A and 8B compare % LasR inhibition (8A) with % LasR activation (8B) for control compound V-06-018.
# FIGS. 9A and 9B compare % LasR inhibition (9A) with % LasR activation (9B) for compound 33.
# FIGS. 10A and 10B compare % LasR inhibition (10A) with % LasR activation (10B) for compound 32 (thiophene analog of compound 33).
# LasR [4] = target: T1, LasR; format: cell-based; settings: measured vs 25 nM OdDHL
# From the text: as §1
# IC50 is the concentration of an inhibitor where the response or binding is reduced by half (half maximal inhibitory concentration).
smiles,measurement,setting,value
CCCCCCCCCC(=O)CC(=O)Nc1ccccc1 [Compound V-06-018],inhibition of elastase production (previously shown),P. aeruginosa PAO1 [1],previously been shown to inhibit elastase production
same,inhibition of production of virulence factor elastase,P. aeruginosa PAO1 [2],little or no inhibition
same,% LasR activation,LasR [3],does not exhibit LasR activation
same,Maximum Inhibition (95% CL),LasR [4],87 (91-85) %
same,IC50,LasR [4]; read-out: IC50 (95% CL),2000 nM
